Measured values: patent publication US10508103B2, “Benzimidazole-linked indole compound acting as novel divalent IAP antagonist” (MEDSHINE DISCOVERY INC., priority 2016, dated 2019)

Assays:
[1] = test system: NF-κB Luciferase Reporter Hela cells; experiment: TNF-α inducing NF-κB reporter; type: cell-based; details: Homo sapiens, 6 h, Bright-Glo luciferase
Procedure: Biological Assay 2: TNF-α inducing NF-κB reporter
• 1) tested compounds were added into DMSO to give parent liquor (10 mM); • 2) reference compound Birinapant (32 μL, 10 mM) was added into DMSO (128 μL) to give a solution (2 mM); • 3) 0.5 μL reference compound Birinapant (2 mM) and tested compounds (10 mM) were taken by Echo and added into Greiner 96 well black cell culture plate respectively. The initial concentration of the reference compound and tested compound was 10 μM and 50 μM, respectively. Then, the reference compound and tested compounds were diluted at 9 points in series by 5-fold; and every plate was repeated for 3 times. • 4) the reference compound WXFL2012A001 (Birinapant) (final concentration: 10 μM) as HPE and DMSO (final concentration: 0.5%) as ZPE.
• 5) purpose of the three repeated plates: the first plate was used for testing compounds' activity;
the second plate was used for testing cytotoxicity of the compounds; the third plate was used for solution replacement of the first and second plates: mixing inducer TNF-α and medium containing 0.1% FBS, and then being added to the third plate and the resultant mixture was transferred to the first plate where supernatants had been removed.
• 1) removing medium in NF-iBLuciferase Reporter Hela cell culture flask and washing cell once with PBS (10 mL) • 2) adding 0.25% pancreatin (3 mL) to T150 cell culture flask, and placinginto cell incubator (37° C., 5%CO2) and dissociating cell for 3 min, and then medium (10 mL) was added to end dissociation and blowing cells with electric pipette until cells were dispersed into single cell. • 3) Calculating cell density with cell counter Countstar • 4) Adjusting NF-κB Luciferase Reporter Hela density with medium to 2.0×10^5 cells/mL • 5) Adding cells to two Greiner 96 well black cell culture plates containing compounds, (100 μL per well (2.0×10^4 cells/well)), one plate was used for testing compounds' activity, another was used for testing cytotoxicity of the compounds. • 6) Placing cell culture plates into cell incubator (37° C., 5%CO2) and incubatingfor 24 h Second Day TNF-α Inducing • 1) TNF-α (100 μg/mL) was diluted into 20 ng/mL with 0.1% FBS medium and transferredto the third plate with 100 μL per well • 2) Removing medium of the first 96 well black cell culture plate (compound activity testing plate) after 24 h, replacing with fresh medium containing the compound and 20 ng/mL TNF-α in the third plate • 3) Placing cell culture plate into cell incubator (37° C., 5% CO2) and incubatingfor 6 h • 4) after 6 h, compound's activity in the first plate was tested according to Bright-Glo (Promega) manual method, luciferase signal in each well was tested by Envision plate reader • 5) compound's cytotoxicity in the second plate was tested according to ATPlite 1Step (Perkin Elmer) manual method, luciferase signal in each well was tested by Envision plate reader • 6) analyzing with software to obtain EC50 of compound.

cIAP1-BIR3 Protein = cIAP1-BIR3 Protein (Homo sapiens (Human), UniProt Q13490); experiment: Fluorescence polarization affinity of compounds to cIAP1-BIR3; type: binding; details: cIAP1-BIR3 20 nM; 5 nM ARPFAQ-K(5-FAM)-NH2 probe; FP; pH 7.5; read-out: affinity to target protein in vitro, cIAP1-BIR3 Protein (IC50)
Chain of cIAP1-BIR3 Protein (Q13490 253-363): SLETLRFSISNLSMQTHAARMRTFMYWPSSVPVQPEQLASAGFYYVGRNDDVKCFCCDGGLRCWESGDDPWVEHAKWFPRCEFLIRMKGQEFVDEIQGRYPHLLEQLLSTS
Procedure: (§1) Biological Assay 1: affinity of compounds to cIAP1-BIR3, cIAP2-BIR3, XIAP-BIR3 • 1) Affinity of compounds listed in table to cIAP1-BIR3, Ciap2-BIR3, XIAP-BIR3 was tested referring to Nikolovska-Colesks, Z. et.Al. (Analytical Biochemistry,2004,232:261-273) to obtain IC50 value. Generally speaking, in 10-dose IC50 mode, IAP antagonists with different concentrations were diluted in series by 3-fold and fluorescence labelled ARPFAQ-K (5-FAM)-NH2 peptide was used as probe to test compounds binding to protein BIR3 domain. • 2) Test condition: cIAP1-BIR3: 20 nM; cIAP2-BIR3: 60 nM; XIAP-BIR3: 30 nM; 5 nM probe in 100 mM tripotassium phosphate, pH 7.5, 0.1 mg/mL BSA, 0.005% Triton X100 and 0.5% DMSO. • 3) Test procedure: compounds were added into protein with different concentrations by using ECHO (LabCyte), and then the mixture was preincubated for 15 min. The probe was added and the final concentration was 5 nM. After incubating for 60 min, FP was tested and mP was calculated. Experiment results were list in table 1.

cIAP2-BIR3 Protein = cIAP2-BIR3 Protein (Homo sapiens (Human), UniProt Q13489); experiment: Fluorescence polarization affinity of compounds to cIAP2-BIR3; type: binding; details: cIAP2-BIR3 60 nM; 5 nM ARPFAQ-K(5-FAM)-NH2 probe; FP; pH 7.5; read-out: affinity to target protein in vitro, cIAP2-BIR3 Protein (IC50)
Chain of cIAP2-BIR3 Protein (Q13489 238-349): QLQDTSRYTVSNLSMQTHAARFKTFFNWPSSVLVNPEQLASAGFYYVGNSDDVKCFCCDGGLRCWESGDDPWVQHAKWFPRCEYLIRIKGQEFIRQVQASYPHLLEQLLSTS
Procedure: as §1

XIAP-BIR3 Protein = XIAP-BIR3 Protein (Homo sapiens (Human), UniProt P98170); experiment: Fluorescence polarization affinity of compounds to XIAP-BIR3; type: binding; details: XIAP-BIR3 30 nM; 5 nM ARPFAQ-K(5-FAM)-NH2 probe; FP; pH 7.5; read-out: affinity to target protein in vitro, XIAP-BIR3 Protein (IC50)
Chain of XIAP-BIR3 Protein (P98170 241-356): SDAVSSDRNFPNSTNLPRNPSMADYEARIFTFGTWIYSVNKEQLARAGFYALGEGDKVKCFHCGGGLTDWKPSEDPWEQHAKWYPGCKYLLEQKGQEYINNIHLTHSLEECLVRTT
Procedure: as §1

[2] = Table 4, 20 ng/mL TNF-α, exact values with control Birinapant
[3] = Table 3, 20 ng/mL TNF-α, values given as ranges

CC[C@H](NC(=O)[C@H](C)NC)C(=O)N1C[C@@H](O)C[C@H]1Cc1c(-c2[nH]c3cc(F)ccc3c2C[C@@H]2C[C@H](O)CN2C(=O)[C@H](CC)NC(=O)[C@H](C)NC)[nH]c2cc(F)ccc12 [Birinapant, reference compound]
EC50 [1, 2]: 7.05 nM

CN[C@@H](C)C(=O)N[C@H](C(=O)N1CCC[C@H]1Cc1c(-c2nc3cc(F)ccc3n2C[C@@H]2CCCN2C(=O)[C@@H](NC(=O)[C@H](C)NC)C(C)C)[nH]c2cc(F)ccc12)C(C)C [Embodiment 1]
EC50 [1, 3]: < 10 nM
EC50 [1, 2]: 7.11 nM
IC50 (cIAP1-BIR3 Protein): < 10 nM
IC50 (cIAP2-BIR3 Protein): 10 to 100 nM
IC50 (XIAP-BIR3 Protein): 10 to 100 nM

CC[C@H](NC(=O)[C@H](C)NC)C(=O)N1CCC[C@H]1Cc1c(-c2nc3cc(F)ccc3n2C[C@@H]2CCCN2C(=O)[C@@H](NC(=O)[C@H](C)NC)C(C)C)[nH]c2cc(F)ccc12 [Embodiment 2]
EC50 [1, 3]: 10 to 100 nM
IC50 (cIAP1-BIR3 Protein): < 10 nM
IC50 (cIAP2-BIR3 Protein): 10 to 100 nM
IC50 (XIAP-BIR3 Protein): 10 to 100 nM

CC[C@H](NC(=O)[C@H](C)NC)C(=O)N1CCC[C@H]1Cc1c(-c2nc3cc(F)ccc3n2C[C@@H]2CCCN2C(=O)[C@@H](NC(=O)[C@H](C)NC)C(C)(C)C)[nH]c2cc(F)ccc12 [Embodiment 3]
EC50 [1, 3]: < 10 nM

CC[C@H](NC(=O)[C@H](C)NC)C(=O)N1CCC[C@H]1Cc1c(-c2nc3cc(F)ccc3n2C[C@@H]2CCCN2C(=O)[C@@H](NC(=O)[C@H](C)NC)C2CCCCC2)[nH]c2cc(F)ccc12 [Embodiment 4]
EC50 [1, 3]: 10 to 100 nM

CC[C@H](NC(=O)[C@H](C)NC)C(=O)N1CCC[C@H]1Cn1c(-c2[nH]c3cc(F)ccc3c2C[C@@H]2CCCN2C(=O)[C@@H](NC(=O)[C@H](C)NC)C(C)(C)C)nc2cc(F)ccc21 [Embodiment 5]
EC50 [1, 3]: 10 to 100 nM

CC[C@H](NC(=O)[C@H](C)NC)C(=O)N1CCC[C@H]1Cn1c(-c2[nH]c3cc(F)ccc3c2C[C@@H]2CCCN2C(=O)[C@@H](NC(=O)[C@H](C)NC)C2CCCCC2)nc2cc(F)ccc21 [Embodiment 6]
EC50 [1, 3]: 10 to 100 nM

CCC[C@H](NC(=O)[C@H](C)NC)C(=O)N1CCC[C@H]1Cc1c(-c2nc3cc(F)ccc3n2C[C@@H]2CCCN2C(=O)[C@@H](NC(=O)[C@H](C)NC)C(C)C)[nH]c2cc(F)ccc12 [Embodiment 7]
EC50 [1, 3]: 10 to 100 nM

CCC[C@H](NC(=O)[C@H](C)NC)C(=O)N1CCC[C@H]1Cc1c(-c2nc3cc(F)ccc3n2C[C@@H]2CCCN2C(=O)[C@@H](NC(=O)[C@H](C)NC)C(C)(C)C)[nH]c2cc(F)ccc12 [Embodiment 8]
EC50 [1, 3]: < 10 nM

CCC[C@H](NC(=O)[C@H](C)NC)C(=O)N1CCC[C@H]1Cc1c(-c2nc3cc(F)ccc3n2C[C@@H]2CCCN2C(=O)[C@@H](NC(=O)[C@H](C)NC)C2CCCCC2)[nH]c2cc(F)ccc12 [Embodiment 9]
EC50 [1, 3]: 10 to 100 nM

CCC[C@H](NC(=O)[C@H](C)NC)C(=O)N1CCC[C@H]1Cn1c(-c2[nH]c3cc(F)ccc3c2C[C@@H]2CCCN2C(=O)[C@@H](NC(=O)[C@H](C)NC)C(C)C)nc2cc(F)ccc21 [Embodiment 10]
EC50 [1, 3]: 10 to 100 nM

CCC[C@H](NC(=O)[C@H](C)NC)C(=O)N1CCC[C@H]1Cn1c(-c2[nH]c3cc(F)ccc3c2C[C@@H]2CCCN2C(=O)[C@@H](NC(=O)[C@H](C)NC)C(C)(C)C)nc2cc(F)ccc21 [Embodiment 11]
EC50 [1, 3]: 10 to 100 nM

CCC[C@H](NC(=O)[C@H](C)NC)C(=O)N1CCC[C@H]1Cn1c(-c2[nH]c3cc(F)ccc3c2C[C@@H]2CCCN2C(=O)[C@@H](NC(=O)[C@H](C)NC)C2CCCCC2)nc2cc(F)ccc21 [Embodiment 12]
EC50 [1, 3]: 10 to 100 nM

CCC[C@H](NC(=O)[C@H](C)NC)C(=O)N1C[C@@H](F)C[C@H]1Cc1c(-c2nc3cc(F)ccc3n2C[C@@H]2C[C@H](F)CN2C(=O)[C@H](CCC)NC(=O)[C@H](C)NC)[nH]c2cc(F)ccc12 [Embodiment 15]
EC50 [1, 3]: 10 to 100 nM

CCC[C@H](NC(=O)[C@H](C)NC)C(=O)N1C[C@@H](F)C[C@H]1Cc1c(-c2nc3cc(F)ccc3n2C[C@@H]2C[C@H](F)CN2C(=O)[C@@H](NC(=O)[C@H](C)NC)C(C)(C)C)[nH]c2cc(F)ccc12 [Embodiment 33]
EC50 [1, 3]: < 10 nM

CCC[C@H](NC(=O)[C@H](C)NC)C(=O)N1C[C@@H](F)C[C@H]1Cc1c(-c2nc3cc(F)ccc3n2C[C@@H]2C[C@H](F)CN2C(=O)[C@@H](NC(=O)[C@H](C)NC)C2CCCCC2)[nH]c2cc(F)ccc12 [Embodiment 34]
EC50 [1, 3]: < 10 nM

CCC[C@H](NC(=O)[C@H](C)NC)C(=O)N1C[C@@H](F)C[C@H]1Cn1c(-c2[nH]c3cc(F)ccc3c2C[C@@H]2C[C@H](F)CN2C(=O)[C@@H](NC(=O)[C@H](C)NC)C(C)(C)C)nc2cc(F)ccc21 [Embodiment 35]
EC50 [1, 3]: < 10 nM

CC[C@H](NC(=O)[C@H](C)NC)C(=O)N1CCC[C@H]1Cc1c(-c2nc3cc(F)ccc3n2C[C@@H]2C[C@H](F)CN2C(=O)[C@@H](NC(=O)[C@H](C)NC)C(C)C)[nH]c2cc(F)ccc12 [Embodiment 37]
EC50 [1, 3]: 10 to 100 nM

CC[C@H](NC(=O)[C@H](C)NC)C(=O)N1CCC[C@H]1Cn1c(-c2[nH]c3cc(F)ccc3c2C[C@@H]2C[C@H](F)CN2C(=O)[C@@H](NC(=O)[C@H](C)NC)C(C)C)nc2cc(F)ccc21 [Embodiment 41]
EC50 [1, 3]: 10 to 100 nM

CN[C@@H](C)C(=O)N[C@H](C(=O)N1CC(F)(F)C[C@H]1Cc1c(-c2nc3cc(F)ccc3n2C[C@@H]2CC(F)(F)CN2C(=O)[C@@H](NC(=O)[C@H](C)NC)C(C)C)[nH]c2cc(F)ccc12)C(C)C [Embodiment 45]
EC50 [1, 3]: 10 to 100 nM

CC[C@H](NC(=O)[C@H](C)NC)C(=O)N1CC(F)(F)C[C@H]1Cn1c(-c2[nH]c3cc(F)ccc3c2C[C@@H]2CC(F)(F)CN2C(=O)[C@@H](NC(=O)[C@H](C)NC)C(C)C)nc2cc(F)ccc21 [Embodiment 47]
EC50 [1, 3]: 10 to 100 nM

CC[C@H](NC(=O)[C@H](C)NC)C(=O)N1C[C@@H](F)C[C@H]1Cc1c(-c2nc3cc(F)ccc3n2C[C@@H]2[C@@H](C)[C@@H](C)CN2C(=O)[C@H](CC)NC(=O)[C@H](C)NC)[nH]c2cc(F)ccc12 [Embodiment 48]
EC50 [1, 3]: 10 to 100 nM

CN[C@@H](C)C(=O)N[C@H](C(=O)N1C[C@@H](F)C[C@H]1Cc1c(-c2nc3cc(F)ccc3n2C[C@@H]2[C@@H](C)[C@@H](C)CN2C(=O)[C@@H](NC(=O)[C@H](C)NC)C(C)C)[nH]c2cc(F)ccc12)C(C)C [Embodiment 49]
EC50 [1, 3]: < 10 nM

CC[C@H](NC(=O)[C@H](C)NC)C(=O)N1C[C@@H](F)C[C@H]1Cc1c(-c2nc3cc(F)ccc3n2C[C@@H]2C[C@H](F)CN2C(=O)[C@@H](NC(=O)[C@H](C)NC)C(C)C)[nH]c2ccccc12 [Embodiment 50]
EC50 [1, 3]: 10 to 100 nM

CC[C@H](NC(=O)[C@H](C)NC)C(=O)N1C[C@@H](F)C[C@H]1Cc1c(-c2nc3cc(F)ccc3n2C[C@@H]2C[C@H](F)CN2C(=O)[C@@H](NC(=O)[C@H](C)NC)C(C)C)[nH]c2cc(Cl)ccc12 [Embodiment 51]
EC50 [1, 3]: < 10 nM
